Measurements taken from article PMC12088962, “Design, synthesis, and biological investigation of new thiazole-based derivatives as multi-targeted inhibitors endowed with antiproliferative, antioxidant, and antibacterial properties” (Frontiers in Chemistry, 2025).
Values after ≈ are worked out from the molar mass of the structure shown.

Assays:
B. subtilis = assay: MIC by twofold serial dilution; assay type: cell-based, Bacillus subtilis (ATCC 6051); settings: for MIC: Bacillus subtilis, read-out: Minimum inhibitory concentration (MIC), B. subtilis; for MIC / Minimum inhibitory concentration (MIC), B. subtilis: Gram-positive
Experimental: (§1) The antibacterial efficacy of compounds 11b, 11e, and 12b was evaluated against Gram-positive bacteria (S. aureus and B. subtilis) and Gram-negative bacteria (E. coli and P. aeruginosa). Table 5 presents the MICs (nM) of these compounds against the evaluated bacteria, utilizing ciprofloxacin as the reference drug, determined through a twofold serial dilution approach on a 96-well microtiter plate ([Frejat F. O. et al., 2022]).
(§2) The antibacterial efficacy of compounds 11b, 11e, and 12b was evaluated against Gram-positive bacteria (S. aureus and B. subtilis) and Gram-negative bacteria (E. coli and P. aeruginosa). The MICs (nM) of the tested compounds against the evaluated bacteria were determined through a twofold serial dilution approach on a 96-well microtiter plate ([Frejat F. O. et al., 2022]). See Appendix A for more details.
(§3) 4.2. Antimicrobial activity
(§4) 4.2.1. Organisms and culture conditions […]
(§5) 4.2.2. Minimum inhibitory concentration assay
(§6) In 96-well microtiter plates and […] of fresh bacterial culture of a single McFarland unit overnight, a double serial dilution of each compound […] in sterile standard saline were prepared to every single source well. Ciprofloxacin antibiotic (5 mg / mL-1) and normal saline were included as standard reference in each assay. The plates were incubated at 37 0C overnight.
(§7) As an indicator of bacterial growth, […] of p -iodonitrotetrazolium violet (INT) was added to each well and incubated at 37 0C for 30 min. MIC values are recorded as the lowest concentration […]
(§8) tetrazolidium salt acts as an electron accepter and is reduced to a red colored formazan product by biological activity organisms. Where bacterial growth was inhibited, the solution in the well remained clear after incubation with INT. […]

P. aeruginosa = assay: MIC by twofold serial dilution; assay type: cell-based, Pseudomonas aeuroginosa (ATCC 10145); settings: Gram-negative; for MIC: Pseudomonas aeruginosa, read-out: Minimum inhibitory concentration (MIC), P. aeruginosa
Experimental: as §1, §2, §3, §4, §5, §6, §7, §8

E. coli = assay: MIC by twofold serial dilution; assay type: cell-based, Escherichia coli (ATCC 11775); settings: Gram-negative; for MIC: Escherichia coli, read-out: Minimum inhibitory concentration (MIC), E. coli
Experimental: as §1, §2, §3, §4, §5, §6, §7, §8

S. aureus = assay: MIC by twofold serial dilution; assay type: cell-based, Staphylococcus aureus (ATCC 12600); settings: Gram-positive; for MIC: Staphylococcus aureus, read-out: Minimum inhibitory concentration (MIC), S. aureus
Experimental: as §1, §2, §3, §4, §5, §6, §7, §8

[1] = test system: four cancer cell lines (A-549, MCF-7, Panc-1, HT-29); assay: Antiproliferative MTT assay, average over four cancer cell lines; settings: for GI50: Homo sapiens, read-out: Antiproliferative activity, Average (GI50)
Excerpt: (§9) Dose-response assays determined the IC50 values for the novel compounds. We derived the reported data from a minimum of two separate experiments, each consisting of three repetitions per concentration.
Assay for antiproliferative effect

HT-29 cells = assay: Antiproliferative MTT assay; settings: Homo sapiens, HT-29, read-out: Antiproliferative activity IC50 ± SEM, HT-29
Excerpt: as §9
Assay for antiproliferative effect

in vitro = settings: human, MCF-10A mammary gland epithelial cells (normal cell line)
EGFR = EGFR (Homo sapiens, UniProt P00533); assay: EGFR-TK inhibitory assay
Chain of EGFR (P00533 669-1210): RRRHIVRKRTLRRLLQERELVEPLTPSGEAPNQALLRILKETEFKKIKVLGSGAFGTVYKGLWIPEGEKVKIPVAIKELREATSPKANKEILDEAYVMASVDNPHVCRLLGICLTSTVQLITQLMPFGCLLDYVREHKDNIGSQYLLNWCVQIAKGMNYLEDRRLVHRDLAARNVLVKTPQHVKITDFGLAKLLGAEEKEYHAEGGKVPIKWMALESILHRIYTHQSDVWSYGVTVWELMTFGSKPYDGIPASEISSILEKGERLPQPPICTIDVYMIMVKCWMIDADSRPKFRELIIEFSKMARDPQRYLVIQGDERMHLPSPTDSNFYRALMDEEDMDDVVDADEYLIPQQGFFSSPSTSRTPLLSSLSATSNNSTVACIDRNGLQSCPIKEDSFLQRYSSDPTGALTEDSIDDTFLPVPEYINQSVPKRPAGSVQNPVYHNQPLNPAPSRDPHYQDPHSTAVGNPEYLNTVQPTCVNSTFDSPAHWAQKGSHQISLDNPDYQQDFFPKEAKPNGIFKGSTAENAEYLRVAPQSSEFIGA
Experimental: Baculoviral expression vectors including pBlueBacHis2B and pFASTBacHTc were used
5ʹ upstream to the EGFR sequence comprised a sequence that encoded (His)6. Sf-9 cells were infected for 72h for protein expression. The pellets of Sf-9 cells were solubilized in a buffer containing sodium vanadate (100 μM), aprotinin (10 μg/mL), triton (1%), HEPES buffer(50mM), ammonium molybdate (10 μM), benzamidine HCl (16 μg/mL), NaCl (10 mM),leupeptin (10 μg/mL) and pepstatin (10 μg/mL) at 0°C for 20 min at pH 7.4, followed by centrifugation for 20 min. To eliminate the nonspecifically bound material, a Ni-NTA super flow packed column was used to pass through and wash the crude extract supernatant first with 10mM and then with 100 mM imidazole. Histidine-linked proteins were first eluted with 250 and then with 500 mM imidazole subsequent to dialysis against NaCl (50 mM), HEPES (20 mM), glycerol (10%) and 1 μg/mL each of aprotinin, leupeptin and pepstatin for 120 min. The purification was performed either at 4 °C or on ice. To record autophosphorylation level, EGFR kinase assay was carried out on the basis of DELFIA/Time-Resolved Fluorometry. The compounds were first
dissolved in DMSO absolute, subsequent to dilution to appropriate concentration using HEPES
(25 mM) at pH 7.4. Each compound (10 μL) was incubated with recombinant enzyme (10 μL, 5
ng for EGFR, 1:80 dilution in 100 mM HEPES) for 10 min at 25 °C, subsequent to the addition of
5X buffer (10 μL, containing 2 mM MnCl2, 100 μM Na3VO4, 20 mM HEPES and 1 mM DTT)
and ATP-MgCl2 (20 μL, containing 0.1 mM ATP and 50 mM MgCl2) and incubation for 1h. The
negative and positive controls were included in each plate by the incubation of enzyme either with
or without ATP-MgCl2. The liquid was removed after incubation and the plates were washed
thrice using a wash buffer. The Europium-tagged antiphosphotyrosine antibody (75 μL, 400 ng)
(§10) was added to each well followed by incubation of 1h and then washing of the plates using buffer.
(§11) The enhancement solution was added to each well and the signal was recorded at excitation and
(§12) The autophosphorylation percentage inhibition by compounds was calculated using the following equation:
calculated. The majority of signals detected by antiphosphotyrosine antibody were from EGFR because the enzyme preparation contained low impurities.

Panc-1 cells = assay: Antiproliferative MTT assay; settings: Homo sapiens, PANC-1, read-out: Antiproliferative activity IC50 ± SEM, Panc-1
Excerpt: as §9
Assay for antiproliferative effect

E. coli DNA gyrase = E. coli DNA gyrase (Escherichia coli, UniProt P0AES6); assay: DNA gyrase supercoiling assay; assay type: biochemical; settings: for remaining activity at 1 µM: read-out: RA (residual activity of the enzyme), E. Coli DNA gyrase
Experimental: 4.2.3. Determination of Inhibitory Activities on E. coli DNA Gyrase.
All the final compounds were tested for E. coli DNA gyrase inhibitory activity in a supercoiling assay. Activities were determined on streptavidin -coated 96-well microtiter plates from Thermo scientific Pierce. First, the plates were rehydrated with buffer (20 mM Tris -HCl with pH 7.6, 0.01% […]
immobilized. After washing off the unbound oligonucleotide, the enzyme test was performed. The reaction volume of 30 μL in buffer (35 mM Tris-HCl with pH 7.5, 4 mM MgCl 2, 24 mM KCl, 2 […]
1.5 U of DNA gyrase from E. coli or S. aureus, 0.75 μg of relaxed pNO1 plasmid, and 3 μL solution of the inhibitor in 1 0% DMSO and 0.008% Tween 20. Reaction solutions were incubated at 37 °C […]
for 30 min. After that, the TF buffer (50 mM NaOAc with pH 5.0, 50 mM NaCl and 50 mM MgCl2) was added to terminate the enzymatic reaction. After additional incubation for 30 min at rt, during which biotin-oligonucleotide-plasmid triplex was formed, the unbound plasmid was washed off using TF buffer and SybrGOLD in T10 buffer (10 mM Tris HCl wit h pH 8.0 and 1 mM EDTA) was added. The fluorescence was measured with a microplate reader (BioTek Synergy H4, excitation: 485 nm, emission: 535 nm). […]
tested compounds. GraphPad Prism software was used to calculate the IC50 values. The result is given as the average value of three independent measurements. […]

A-549 cells = assay: Antiproliferative MTT assay; settings: Homo sapiens, A549, read-out: Antiproliferative activity IC50 ± SEM, A-549
Excerpt: as §9
Assay for antiproliferative effect

MCF-7 cells = assay: Antiproliferative MTT assay; settings: Homo sapiens, MCF7, read-out: Antiproliferative activity IC50 ± SEM, MCF-7
Excerpt: as §9
Assay for antiproliferative effect

VEGFR-2 = VEGFR-2 (Homo sapiens, UniProt P35968); assay: VEGFR-2 inhibitory assay
Chain of VEGFR-2 (P35968 20-1356): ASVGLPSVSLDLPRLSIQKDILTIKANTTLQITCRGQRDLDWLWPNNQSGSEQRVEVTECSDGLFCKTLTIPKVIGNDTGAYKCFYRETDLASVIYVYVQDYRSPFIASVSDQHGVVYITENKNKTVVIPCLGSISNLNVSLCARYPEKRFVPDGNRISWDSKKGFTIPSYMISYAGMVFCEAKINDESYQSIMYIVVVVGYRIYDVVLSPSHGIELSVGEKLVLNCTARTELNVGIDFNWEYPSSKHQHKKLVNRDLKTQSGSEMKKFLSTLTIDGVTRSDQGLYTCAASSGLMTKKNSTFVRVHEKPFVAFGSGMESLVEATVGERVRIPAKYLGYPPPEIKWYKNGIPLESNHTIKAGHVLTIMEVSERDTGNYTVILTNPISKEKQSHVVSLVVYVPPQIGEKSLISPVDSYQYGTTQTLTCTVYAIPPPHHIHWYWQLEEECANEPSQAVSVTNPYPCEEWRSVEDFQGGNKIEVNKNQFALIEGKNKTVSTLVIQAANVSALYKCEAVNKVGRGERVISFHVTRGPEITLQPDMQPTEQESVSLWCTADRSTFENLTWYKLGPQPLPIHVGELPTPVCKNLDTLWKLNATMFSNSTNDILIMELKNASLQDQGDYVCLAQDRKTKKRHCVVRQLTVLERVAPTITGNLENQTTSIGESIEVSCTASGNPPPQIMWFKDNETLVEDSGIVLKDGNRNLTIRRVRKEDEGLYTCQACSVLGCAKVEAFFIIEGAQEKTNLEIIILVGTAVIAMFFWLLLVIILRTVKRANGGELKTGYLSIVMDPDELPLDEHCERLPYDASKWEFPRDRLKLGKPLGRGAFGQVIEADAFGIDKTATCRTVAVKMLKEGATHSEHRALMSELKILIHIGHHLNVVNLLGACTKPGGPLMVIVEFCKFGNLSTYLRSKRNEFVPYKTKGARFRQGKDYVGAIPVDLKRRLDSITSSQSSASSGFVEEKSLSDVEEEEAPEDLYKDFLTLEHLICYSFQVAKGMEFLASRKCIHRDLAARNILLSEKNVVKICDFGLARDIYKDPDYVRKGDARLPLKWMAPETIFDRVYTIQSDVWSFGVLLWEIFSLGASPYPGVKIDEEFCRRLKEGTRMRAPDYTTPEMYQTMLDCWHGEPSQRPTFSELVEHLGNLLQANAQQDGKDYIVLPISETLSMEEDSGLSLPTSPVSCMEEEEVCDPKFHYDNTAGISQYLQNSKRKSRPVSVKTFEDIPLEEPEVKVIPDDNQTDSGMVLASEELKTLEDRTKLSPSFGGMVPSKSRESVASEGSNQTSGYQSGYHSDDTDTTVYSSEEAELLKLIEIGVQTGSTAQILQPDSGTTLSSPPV
Experimental: The outcomes are presented as IC50 values.
as §10, §11, §12
Prepare all the solutions using autoclaved, deionized water and analytical grade reagents.
and store all the reagents at room temperature (unless indicated otherwise).
solution, add 5 mL ultra-pure water; 1×Kinase Assay Buffer: add 25 mL HEPES solution (1 M),
water, adjust pH to 7.5 and constant volume to 500 mL using ultrapure water; 4×Stop solution (40
mM): Mix 0.8 mL of the foregoing EDTA solution, 1 mL 10×Detection Buffer and 8.2 mL ultra-
pure water; 1×Detection Buffer: Mix 1 mL 10×Detection Buffer with 9 mL water; 4×VEGFR
μM) was added to 624 μL 1×Kinase Assay Buffer and mixed; 4×ULight™-labeled JAK1
(substrate) (200 nM, 25 times diluted): 24 μL ULight™-labeled JAK1 (mother liquor
concentration 5 μM) was added to 576 μL 1×Kinase Assay Buffer and mixed; 4×ATP Solution
(40 μM, 250 times diluted): add 3 μL ATP solution (10 mM) to 747 μL 1×Kinase Assay Buffer
2×substrate/ATP Mix: 560 μL foregoing 4×ULight™-labeled JAK1 and 560 μL 4×ATP solution
and mixed (prepared before use). The assays used an ULight-labeled peptide substrate and a
Europium-W1024-labeled antiphosphotyrosine antibody. The VEGFR-2 was purchased from
Carna Biosciences, Inc. (New York, USA). The 384-well plates were obtained from PerkinElmer.
5 μL 2×VEGFR-2 kinase solution (0.5 nM)
was added to 384-well plates homogeneous mixing and pre-reaction at room temperature for 30 min. Next, 2.5 μL 4×Ultra ULightTM-JAK-1(Tyr1023) Peptide (200 nM)/ATP (40 μM) was added to the corresponding wells of a 384-well plate. Negative control: 2.5 μL/well 4×substrate/ATP mixture and 7.5 μL 1×kinase assay buffer in 384-well plate well. Positive control:
μL/well 2×VEGFR-2 kinase solution was added to the 384-well plate, The final concentration of DMSO in the mixing system was 4%. After incubation at room temperature and dark for 60 min, 5 μL 4×stop solution was added to corresponding wells to react for 5 min and then 5 μL 4×detection mix was added to the corresponding wells of a 384-well plate. The mixture was centrifugally mixed and stayed for 60 min at room temperature for color development. The plate was read using a Envision plate reader. The inhibition rate (%) = (positive well reading-compound well reading)/(positive well reading-negative well reading)×100. The corresponding IC50 values were calculated using GraphPad Prism 5.0.

Structure (SMILES)	MIC (B. subtilis)	MIC (P. aeruginosa)	MIC (E. coli)	MIC (S. aureus)	GI50 [1]	IC50 (HT-29 cells)	viability at 96 h, 50 µM (in vitro)	IC50 (Panc-1 cells)	remaining activity at 1 µM (E. coli DNA gyrase)	IC50 (A-549 cells)	IC50 (MCF-7 cells)	IC50 (E. coli DNA gyrase)	also measured
O=C(O)c1cn(C2CC2)c2cc(N3CCNCC3)c(F)cc2c1=O [Ciprofloxacin, reference compound]	0.01 µM (≈ 0.00331 µg/mL)	0.06 ± 0.004 µM (≈ 0.0199 µg/mL)	0.06 ± 0.004 µM (≈ 0.0199 µg/mL)	0.03 ± 0.002 µM (≈ 0.00994 µg/mL)	–	–	–	–	–	–	–	–	Minimum inhibitory concentration (MIC), B. subtilis (B. subtilis): 0.01 ± 0.001 µM (≈ 0.00331 µg/mL)
Cc1nc(SCC(=O)c2cc3ccccc3oc2=O)sc1C(=O)/C=C/c1ccccc1 [Compound 11a, (E)-3-(2-((5-Cinnamoyl-4-methylthiazol-2-yl)thio)acetyl)-2H-chromen-2-one]	–	–	–	–	44 nM	44 ± 3 nM	91%	44 ± 3 nM	72%	40 ± 2 nM	48 ± 3 nM	–	IC50 (EGFR): 93 ± 4 nM; IC50 (VEGFR-2): 5200 ± 30 nM
Cc1nc(SCC(=O)c2cc3ccccc3oc2=O)sc1C(=O)/C=C/c1ccc(Cl)cc1 [Compound 11b, (E)-3-(2-((5-(3-(4-Chlorophenyl)acryloyl)-4-methylthiazol-2-yl)thio)acetyl)-2H-chromen-2-one]	0.018 µM (≈ 0.00868 µg/mL)	0.045 µM (≈ 0.0217 µg/mL)	0.042 µM (≈ 0.0202 µg/mL)	0.023 µM (≈ 0.0111 µg/mL)	71 nM	72 ± 6 nM	92%	70 ± 6 nM	–	69 ± 6 nM	74 ± 6 nM	182 ± 13 nM	Fold less efficient than ciprofloxacin (MIC), B. subtilis (B. subtilis): 1.8 fold; Minimum inhibitory concentration (MIC), B. subtilis (B. subtilis): 0.018 ± 0.001 µM (≈ 0.00868 µg/mL); Minimum inhibitory concentration (MIC), P. aeruginosa (P. aeruginosa): 0.045 ± 0.003 µM (≈ 0.0217 µg/mL); Fold less effective than novobiocin (DNA gyrase IC50) (E. coli DNA gyrase): 1.1 fold; Minimum inhibitory concentration (MIC), E. coli (E. coli): 0.042 ± 0.003 µM (≈ 0.0202 µg/mL); Minimum inhibitory concentration (MIC), S. aureus (S. aureus): 0.023 ± 0.001 µM (≈ 0.0111 µg/mL)
Cc1nc(SCC(=O)c2cc3cc(Br)ccc3oc2=O)sc1C(=O)/C=C/c1ccccc1 [Compound 11d, (E)-6-Bromo-3-(2-((5-cinnamoyl-4-methylthiazol-2-yl)thio)acetyl)-2H-chromen-2-one]	–	–	–	–	30 nM	30 ± 1 nM	95%	30 ± 1 nM	54%	28 ± 1 nM	31 ± 1 nM	–	Fold less potent than compound 11f (GI50) [1]: 1.1 fold; IC50 (EGFR): 76 ± 3 nM; IC50 (VEGFR-2): 3600 ± 20 nM
Cc1nc(SCC(=O)c2cc3ccccc3o2)sc1C(=O)/C=C/c1ccccc1 [Compound 12a, (E)-1-(2-((2-(Benzofuran-2-yl)-2-oxoethyl)thio)-4-methylthiazol-5-yl)-3-phenylprop-2-en-1-one]	–	–	–	–	67 nM	66 ± 5 nM	93%	66 ± 5 nM	61%	65 ± 5 nM	70 ± 5 nM	–	–
Cc1nc(SCC(=O)c2cc3ccccc3o2)sc1C(=O)/C=C/c1ccc(Cl)cc1 [Compound 12b, (E)-1-(2-((2-(Benzofuran-2-yl)-2-oxoethyl)thio)-4-methylthiazol-5-yl)-3-(4-chlorophenyl)prop-2-en-1-one]	0.029 ± 0.001 µM (≈ 0.0132 µg/mL)	0.064 ± 0.004 µM (≈ 0.0291 µg/mL)	0.062 ± 0.004 µM (≈ 0.0281 µg/mL)	0.034 ± 0.002 µM (≈ 0.0154 µg/mL)	65 nM	65 ± 5 nM	90%	64 ± 5 nM	–	61 ± 5 nM	68 ± 5 nM	197 ± 12 nM	–
Cc1nc(SCC(=O)c2cc3cc(Br)ccc3o2)sc1C(=O)/C=C/c1ccccc1 [Compound 12d, (E)-1-(2-((2-(5-Bromobenzofuran-2-yl)-2-oxoethyl)thio)-4-methylthiazol-5-yl)-3-phenylprop-2-en-1-one]	–	–	–	–	48 nM	48 ± 3 nM	90%	48 ± 3 nM	65%	45 ± 3 nM	50 ± 3 nM	–	Fold less effective than 11d (GI50) [1]: 1.6 fold
Cc1nc(SCC(=O)c2cc3cc(Br)ccc3o2)sc1C(=O)/C=C/c1ccc(Cl)cc1 [Compound 12e, (E)-1-(2-((2-(5-bromobenzofuran-2-yl)-2-oxoethyl)thio)-4-methylthiazol-5-yl)-3-(4-chlorophenyl)prop-2-en-1-one]	–	–	–	–	62 nM	62 ± 5 nM	94%	62 ± 5 nM	–	60 ± 5 nM	64 ± 5 nM	217 ± 15 nM	Fold less efficient than 11e (GI50) [1]: 1.5 fold; Fold less effective than compound 11b (DNA gyrase IC50) (E. coli DNA gyrase): approximately 1.2 fold
COc1ccc(/C=C/C(=O)c2sc(SCC(=O)c3cc4cc(Br)ccc4o3)nc2C)cc1 [Compound 12f, (E)-1-(2-((2-(5-Bromobenzofuran-2-yl)-2-oxoethyl)thio)-4-methylthiazol-5-yl)-3-(4-methoxyphenyl)prop-2-en-1-one]	–	–	–	–	57 nM	56 ± 4 nM	92%	56 ± 4 nM	–	55 ± 4 nM	59 ± 4 nM	208 ± 15 nM	Fold less potent than compound 11f (GI50) [1]: 2.1 fold; Fold less effective than compound 11b (DNA gyrase IC50) (E. coli DNA gyrase): approximately 1.2 fold
C#Cc1cccc(Nc2ncnc3cc(OCCOC)c(OCCOC)cc23)c1 [Erlotinib, reference compound]	–	–	–	–	–	30 ± 3 nM	–	30 ± 3 nM	–	30 ± 3 nM	40 ± 3 nM	–	–
